In series [1] the test system is experimental allergic rhinitis models. As to the kind of experiment: experimental allergic rhinitis models. In kind it is in vivo. The conditions noted are these: for side-effects: compared with expectation; for reduction in the watery secretion: compared with what is typical for anticholinergic agents.
The test system of series [2] is animal models of asthma and rhinitis. In words: animal models of asthma and rhinitis. As to conditions: in vivo.
The conditions of series [3]: in vivo, po.
The next series in a line: water solubility. The class given is physicochemical.

Structures can show the parent of a compound that is named as a salt.

This is an account of results in US20050222102A1, “Treatment of rhinitis with anticholinergics alone or in combination with antihistamines, phosphodiesterase 4 inhibitors, or corticosteroids” (Sofotec GmbH & Co. KG, priority 2004, published 2005).

For the compound `C[N+]1(C)CC[C@@H](OC(=O)[C@](O)(c2ccccc2)C2CCCC2)C1.[Br-]` (single isomer, unassigned) [R,R-isomer, R,R-glycopyrrolate], in series [1], the side-effects entry is recorded as “lower side-effects than expected” and the “reduction in the watery secretion” value is recorded as “longer-lasting reduction in the watery secretion”.

On to `C[N+]1(C)CCC(OC(=O)C(O)(c2ccccc2)C2CCCC2)C1` (racemic) [glycopyrrolate], for which, in series [1], the side-effects entry is recorded as “lower side-effects than expected” and the “reduction in the watery secretion” value is listed as “longer-lasting reduction in the watery secretion”.

As to `O=C(Nc1c(Cl)cncc1Cl)C(=O)c1cn(Cc2ccc(F)cc2)c2ccc(O)cc12` [AWD 12-281], the “effectiveness in animal models of asthma and rhinitis” value in series [2] is listed as “highly effective”. The “emesis and signs of nausea” value in series [3] is “devoid of emesis and signs of nausea”.

With `CN1CCCC(n2nc(Cc3ccc(Cl)cc3)c3ccccc3c2=O)CC1` (stereo not shown) [azelastine hydrochloride], the water solubility result in the series “water solubility” is given as “sufficient”.
